Read-outs that look alike come from different tables or passages of the source.
Columns and labels:
P2X4 = target: T1, P2X4 (Homo sapiens, UniProt Q99571); test: Aequorin functional assay of P2X receptors in yeast; type: cell-based; conditions: upon ATP addition
T1 construct: expressed in transfected cells; host or cells: Saccharomyces cerevisiae BY4741 dCne1p, single-copy integration, GAL1 promoter
T1 sequence (Q99571 with tags, fused parts or gaps): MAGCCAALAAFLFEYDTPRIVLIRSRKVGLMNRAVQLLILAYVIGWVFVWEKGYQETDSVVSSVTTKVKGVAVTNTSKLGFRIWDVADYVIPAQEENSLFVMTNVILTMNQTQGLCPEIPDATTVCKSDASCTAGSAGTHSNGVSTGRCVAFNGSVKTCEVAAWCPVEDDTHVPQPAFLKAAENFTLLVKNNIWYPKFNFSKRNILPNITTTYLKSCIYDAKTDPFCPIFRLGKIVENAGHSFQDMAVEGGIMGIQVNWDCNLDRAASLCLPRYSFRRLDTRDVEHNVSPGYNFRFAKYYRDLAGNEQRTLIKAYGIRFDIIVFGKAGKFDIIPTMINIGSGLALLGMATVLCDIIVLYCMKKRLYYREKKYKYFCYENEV
Procedure: (§1) Ion channel activity in yeast was tested with the purinergic P2X ion channel family. Channel gating was assessed by an aequorin assay in which aequorin is co-expressed with the receptor and, upon addition of the prosthetic group coelenterazine and addition of calcium, blue light is released. The aequorin-based functional assay was performed in all seven P2X receptors (FIG. 8). P2X1-7 were integrated into the chromosome to mitigate copy number variation between clones and were induced with galactose with the pGal1 promoter. […] Among those receptors that didn't work, it was suspected that improvements in expression and trafficking can improve functionality. For example, by modulating trafficking domains within the P2X4 receptor, aggregation was reduced in vesicles (FIG. 9), and it is believed that this tactic can be employed in other receptors. […] This can be because P2X2 has the slowest desensitization rates of the family (and is often considered “non-desensitizing”) and has the highest unitary conductance (30 pS).
(§2) BY4741ΔCne1p cells were transformed with vectors containing P2X variants. Transformants were validated and made competent for a subsequent transformation with a vector containing aequorin under the expression of the constitutive PGK2 promoter. Overnight cells were induced with 2% […] for 20 hours. Following receptor expression, cells were collected by centrifugation and concentrated to 500 μL. The concentrated cells were then incubated with 5 μL of 1 mg/mL coelenterazine for 30 minutes at room temperature. Washed cells were then resuspended in softening buffer (1 M Sorbitol, 25 mM EDTA, 50 mM DTT), followed by washes in 1 M sorbitol and water. […] Using an F500, 25 μL of cells were monitored for luminescence for 5 seconds. Upon addition of ligand or buffer (100 μL), cells were monitored for luminescence for varying times. […] Luminescence was monitored before and after the addition of 100 μL of 10 μM ATP. Areas under the curve were calculated and plotted against a negative control to determine the IC50.

P2X7 = target: T2, P2X7 (Homo sapiens, UniProt Q99572); test: as above; type: cell-based; conditions: upon ATP addition
T2 construct: expressed in transfected cells; host or cells: Saccharomyces cerevisiae BY4741 dCne1p, genome-integrated under the GAL1 promoter
T2 sequence (Q99572 1-595): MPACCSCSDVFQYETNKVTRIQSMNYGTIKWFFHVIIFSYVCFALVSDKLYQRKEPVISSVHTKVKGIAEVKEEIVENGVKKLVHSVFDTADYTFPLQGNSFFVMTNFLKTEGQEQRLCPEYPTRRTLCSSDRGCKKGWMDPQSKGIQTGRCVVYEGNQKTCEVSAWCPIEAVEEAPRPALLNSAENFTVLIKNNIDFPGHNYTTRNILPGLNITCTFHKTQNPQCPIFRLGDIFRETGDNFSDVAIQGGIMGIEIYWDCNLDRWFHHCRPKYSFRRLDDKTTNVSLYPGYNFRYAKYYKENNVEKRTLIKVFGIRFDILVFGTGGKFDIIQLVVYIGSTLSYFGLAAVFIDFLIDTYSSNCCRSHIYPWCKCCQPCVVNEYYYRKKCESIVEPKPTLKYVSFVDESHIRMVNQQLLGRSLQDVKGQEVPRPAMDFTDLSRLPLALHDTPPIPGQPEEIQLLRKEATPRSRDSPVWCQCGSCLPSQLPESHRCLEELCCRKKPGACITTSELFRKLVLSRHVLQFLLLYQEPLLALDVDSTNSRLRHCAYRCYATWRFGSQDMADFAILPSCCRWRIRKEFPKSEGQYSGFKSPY
Procedure: as §1, §2

P2X1 = target: T3, P2X1 (Homo sapiens, UniProt P51575); test: as above; type: cell-based; conditions: upon ATP addition
T3 construct: expressed in transfected cells; host or cells: Saccharomyces cerevisiae BY4741 dCne1p, genome-integrated under the GAL1 promoter
T3 sequence (P51575 1-399): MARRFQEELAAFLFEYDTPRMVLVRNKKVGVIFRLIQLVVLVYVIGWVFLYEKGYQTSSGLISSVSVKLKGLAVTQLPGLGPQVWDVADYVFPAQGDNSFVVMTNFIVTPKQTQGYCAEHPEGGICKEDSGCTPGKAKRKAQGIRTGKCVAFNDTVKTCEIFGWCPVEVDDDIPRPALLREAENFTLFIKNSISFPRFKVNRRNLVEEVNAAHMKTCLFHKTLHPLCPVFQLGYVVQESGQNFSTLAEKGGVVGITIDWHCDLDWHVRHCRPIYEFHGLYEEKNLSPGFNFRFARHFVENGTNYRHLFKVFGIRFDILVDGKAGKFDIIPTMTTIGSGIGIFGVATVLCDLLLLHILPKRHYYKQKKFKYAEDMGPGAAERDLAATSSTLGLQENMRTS
Procedure: as §1, §2

P2X2 [1] = target: T4, P2X2 (Homo sapiens, UniProt Q9UBL9); test: Plate-based aequorin luminescence assay of P2X2 expressed in yeast; type: cell-based; parameters: expressed in transfected cells; host or cells: Saccharomyces cerevisiae BY4741 dCne1p, genome-integrated under the GAL1 promoter, aequorin on a high-copy plasmid
T4 sequence (Q9UBL9 1-471): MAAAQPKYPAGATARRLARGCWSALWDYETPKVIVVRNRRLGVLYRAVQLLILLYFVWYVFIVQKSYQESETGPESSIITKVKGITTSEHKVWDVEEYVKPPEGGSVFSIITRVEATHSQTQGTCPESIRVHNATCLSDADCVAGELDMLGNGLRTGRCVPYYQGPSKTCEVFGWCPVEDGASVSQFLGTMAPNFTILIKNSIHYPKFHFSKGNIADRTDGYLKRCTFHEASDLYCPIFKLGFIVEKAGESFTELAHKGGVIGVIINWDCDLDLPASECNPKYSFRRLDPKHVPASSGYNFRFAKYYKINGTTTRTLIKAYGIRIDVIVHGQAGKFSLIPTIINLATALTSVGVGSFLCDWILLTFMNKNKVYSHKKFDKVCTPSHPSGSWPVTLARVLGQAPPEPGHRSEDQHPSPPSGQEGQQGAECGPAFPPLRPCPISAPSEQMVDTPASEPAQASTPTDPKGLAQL
Procedure: as §1
To determine whether or not this truncated channel gated in yeast, an aequorin-based functional assay was used. Here aequorin, a bioluminescent protein, emits a photon upon binding calcium. This is done with the aid of coelenterazine, which must be added exogenously to yeast. The reaction is not catalytic, and the off-rate of calcium is too slow to observe on the timescales utilized in our assays. To optimize conditions for expression of both the receptor and reporter, a combination of integration, low-copy, and high-copy vectors was used. At this point, it was only possible to produce a signal upon addition of ATP, the native ligand, when both the receptor and reporter were expressed on high-copy plasmids (FIG. 56).
BY4741ΔCne1p cells were transformed with vectors containing P2X variants. Transformants were validated and made competent for a subsequent transformation with a vector containing aequorin under the expression of the constitutive PGK2 promoter. Overnight cells were induced with 2% […] for 20 hours. Following receptor expression, cells were collected by centrifugation and concentrated to 500 μL. The concentrated cells were then incubated with 5 μL of 1 mg/mL coelenterazine for 30 minutes at room temperature. Washed cells were then resuspended in softening buffer (1 M Sorbitol, 25 mM EDTA, 50 mM DTT), followed by washes in 1 M sorbitol and water. Cells were then resuspended in 50 mM MES/Tris pH 6.5 and aliquoted into a 96-well plate. Using an F500, 25 μL of cells were monitored for luminescence for 5 seconds. Upon addition of ligand or buffer (100 μL), cells were monitored for luminescence for varying times. Cell lysis was performed with the addition of 100 μL Tween20. For inhibition, varying concentrations of suramin were incubated with cells. Luminescence was monitored before and after the addition of 100 μL of 10 μM ATP. Areas under the curve were calculated and plotted against a negative control to determine the IC50.

P2X2 [2] = target: T4, P2X2; conditions: Baqi et al., 2011; Lambrecht et al., 2002; read-out: range of reported IC50 values; cited from earlier work
human 5HT1A = target: T5, human 5HT1A (Homo sapiens, UniProt P08908); test: GPCR-CPR proof of concept, emulsion PCR amplification in yeast; type: cell-based; conditions: cells treated with 250 μM serotonin vs negative control; single-copy integration at HO site
T5 construct: expressed in transfected cells; host or cells: Saccharomyces cerevisiae JG05-2.0 (2 micron plasmid, pTDH3) / JG05-1.0 (single-copy integration at HO)
T5 sequence (P08908 1-422): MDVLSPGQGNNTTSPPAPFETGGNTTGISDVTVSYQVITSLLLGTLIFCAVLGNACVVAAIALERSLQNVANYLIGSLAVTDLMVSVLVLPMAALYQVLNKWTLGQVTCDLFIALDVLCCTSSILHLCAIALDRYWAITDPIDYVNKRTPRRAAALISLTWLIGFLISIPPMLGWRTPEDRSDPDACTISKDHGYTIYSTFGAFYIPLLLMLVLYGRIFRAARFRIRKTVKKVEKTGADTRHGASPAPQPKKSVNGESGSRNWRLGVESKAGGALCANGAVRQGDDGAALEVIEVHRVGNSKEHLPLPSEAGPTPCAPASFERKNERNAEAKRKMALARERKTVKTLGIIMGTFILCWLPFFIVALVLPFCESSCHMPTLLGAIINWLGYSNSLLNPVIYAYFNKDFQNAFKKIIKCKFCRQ
From the text: Having shown functionality of the 5HT1A receptor, CPR strains (JG05-1.0) were constructed using this receptor. […] However, background was mitigated by increasing the pH of the CPR master mix to pH 8.8 and lowering the number of cycles from 35 to 20 during the emulsion PCR. […] Further optimization of expression parameters can greatly increase the signal:noise. For example, a much more pronounced difference can be seen when expressing the receptor from a high-copy plasmid. The experiments outlined here were also performed with cells growing with the ligand for 18 hours. By concentrating the cells and limiting the time of induction, a decrease in background signal can be seen.
Control cells were not induced. Cells (3 mL total) were collected after 18 hours of induction and spun in a tabletop centrifuge at 3,000×g for 5 minutes. The supernatant was discarded and the cell pellet was washed in water and then resuspended in 1 M sorbitol, 25 mM EDTA, 50 mM DTI′. Cells were collected again and washed in 1 M sorbitol. After another wash with water, cells were resuspended in 500 μL PCR mastermix (pH 8.0 or pH 8.8). The resuspended cells were placed into a 2 mL tube with a 1 mL rubber syringe plunger and 1200 μL of oil mix (876 Tegosoft DEC, 84 Gransurf W9, and 240 μL light mineral oil (Sigma-Aldrich)). […]

**Q.** Which “ligand-dependent gating, calcium influx” value (P2X4) does the source give for Nc1ncnc2c1ncn2[C@@H]1O[C@H](COP(=O)(O)OP(=O)(O)OP(=O)(O)O)[C@@H](O)[C@H]1O [ATP] here?
**A.** showed an ATP-dependent calcium influx

**Q.** And the “ligand-dependent gating, calcium influx” value (P2X7)?
**A.** showed an ATP-dependent calcium influx

**Q.** And the “ligand-dependent gating, calcium influx” value (P2X1)?
**A.** showed an ATP-dependent calcium influx

**Q.** And the “agonism / gating of P2X2” value (P2X2 [1]; aequorin luminescence)?
**A.** showed an ATP-dependent calcium influx

**Q.** And the EC50 (P2X2 [1]; dose-response, area under luminescence curve)?
**A.** 6.7 ± 1.5 µM

**Q.** Which results are given for Cc1ccc(C(=O)Nc2ccc(S(=O)(=O)O)c3cc(S(=O)(=O)O)cc(S(=O)(=O)O)c23)cc1NC(=O)c1cccc(NC(=O)Nc2cccc(C(=O)Nc3cc(C(=O)Nc4ccc(S(=O)(=O)O)c5cc(S(=O)(=O)O)cc(S(=O)(=O)O)c45)ccc3C)c2)c1 [suramin]?
**A.** IC50 (P2X2 [2]): 2 to 48 µM; IC50 (P2X2 [1]; cells equilibrated with suramin, then 10 μM ATP): 31.6 ± 1.4 µM

**Q.** For NCCc1c[nH]c2ccc(O)cc12 [serotonin], which “increase in signal of CPR amplification product” value (human 5HT1A) is on record?
**A.** 20 fold

From US11746374B2, “Methods and platform for screening and selecting metabolites and their receptors” (BOARD OF REGENTS, THE UNIVERSITY OF TEXAS SYSTEM, priority 2017, dated 2023)
